From EPA's CvTdb concentration-time database
“And” between values parts separate entries of the source, which are not always exact repeats. Identical values can stand only once.

Columns and labels:
rat [1] = test: concentration in expired air after dosing; settings: dosed: 1,1,1,2-tetrachloroethane, 352 ppm, inhalation, duration: 6 hr
rat [2] = test: concentration in blood after dosing; settings: dosed: 1,2-Dichloroethane, 100 mg/kg, oral, male, Wistar
Rat [3] = test: concentration in blood after dosing; negative times count back from the end of exposure; settings: dosed: 1,2-dichloroethane, inhalation, duration: 6 hr, Male, F344
rat [4] = test: as above; settings: dosed: 1,2-dichloroethane, inhalation, duration: 6 hr, male
rat [5] = test: concentration in urine after dosing; settings: dosed: benzo[a]pyrene, 200 mg/kg, iv, male, LIO
rat [6] = test: concentration in feces after dosing; settings: dosed: benzo[a]pyrene, 200 mg/kg, iv, male, LIO
rat [7] = test: concentration in lung after dosing; settings: dosed: benzo[a]pyrene, inhalation, duration: 4 hr, F344
rat [8] = test: concentration in plasma after dosing; settings: dosed: benzo[a]pyrene, inhalation, duration: 4 hr, F344

ClCC(Cl)(Cl)Cl [1,1,1,2-tetrachloroethane]
rat [1]
Settings	concentration in expired air [ng/mL]
0.2586 h	89.8
0.5066 h	97.9
0.7323 h	90.1
0.7758 h	98.6
1.001 h	79.1
1.012 h	83.8
1.506 h	67.5
1.507 h	72.8
2.766 h	65.7
3.982 h	62.9
4.003 h	52
4.477 h	59.7
5.5 h	58.8
6.5 h	46.7
6.511 h	41.4
6.995 h	40.1
7.007 h	49.3
7.986 h	39.2
7.995 h	32.7
8.987 h	36.6
8.997 h	31
9.986 h	27
9.987 h	29.5

ClCCCl [1,2-Dichloroethane]
rat [2]
Settings	concentration in blood [ng/mL]
0.1036 h	52400
0.1179 h	13300
0.132 h	43800
0.1651 h	12600
0.1867 h	44200
0.1921 h	12300
0.2321 h	11400
0.2347 h	43700
0.2763 h	39500
0.2876 h	11900
0.3244 h	38100
0.3422 h	11800
0.3792 h	37800
0.3969 h	11700
0.4271 h	38800
0.4374 h	11200
0.5094 h	37200
0.5261 h	10800
0.7703 h	31800
0.7778 h	9360
1.018 h	25700
1.028 h	6280
1.518 h	20100
1.525 h	4200
2.019 h	14600
2.026 h	4360
2.519 h	10500
2.525 h	3610
3.016 h	1910
3.027 h	7170
3.517 h	2720
3.527 h	4850
4.013 h	3030
4.015 h	1450
4.508 h	862
4.52 h	1720
5.001 h	703
5.014 h	1210
145 s	5240
247 s	58200
291 s	10900

ClCCCl [1,2-dichloroethane]
concentration in blood [ng/mL], Rat [3]
Settings	50 ppm	250 ppm
0.1443 h	815	24500
0.2313 h	664	–
0.2438 h	–	19700
0.3184 h	495	–
0.3308 h	–	15800
0.4925 h	239	12300
0.7413 h	131	8050
0.99 h	–	5340
1.488 h	–	1940
1.973 h	–	664
2.993 h	–	124
295 s	962	26800

Settings	concentration in blood
Rat [3], -3.002 h, 50 ppm, during exposure	1340 ng/mL
Rat [3], -3.015 h, 250 ppm, during exposure	29300 ng/mL
Rat [3], -4.01 h, 50 ppm, during exposure	1340 ng/mL
Rat [3], -4.01 h, 250 ppm, during exposure	23600 ng/mL
Rat [3], -5.005 h, 50 ppm, during exposure	926 ng/mL
Rat [3], -5.005 h, 250 ppm, during exposure	11700 ng/mL
Rat [3], -5.515 h, 50 ppm, during exposure	476 ng/mL
Rat [3], -5.515 h, 250 ppm, during exposure	5840 ng/mL and 6640 ng/mL
Rat [3], -18 s, 50 ppm, during exposure	1360 ng/mL
Rat [3], -18 s, 250 ppm, during exposure	30800 ng/mL
rat [4], 0 h, 200 ppm, Fischer-344	2940 ng/mL
rat [4], 0.1607 h, 150 ppm, Osborne-Mendel	3870 ng/mL
rat [4], 0.2398 h, 150 ppm, Osborne-Mendel	2830 ng/mL
rat [4], 0.25 h, 200 ppm, Fischer-344	851 ng/mL
rat [4], 0.3387 h, 150 ppm, Osborne-Mendel	2010 ng/mL
rat [4], 0.4969 h, 150 ppm, Osborne-Mendel	1320 ng/mL
rat [4], 0.665 h, 150 ppm, Osborne-Mendel	670 ng/mL
rat [4], 0.9913 h, 150 ppm, Osborne-Mendel	708 ng/mL
rat [4], 1.328 h, 150 ppm, Osborne-Mendel	279 ng/mL
rat [4], 258 s, 150 ppm, Osborne-Mendel	5010 ng/mL
rat [4], -3 h, 200 ppm, Fischer-344, during exposure	3170 ng/mL
rat [4], -5 h, 200 ppm, Fischer-344, during exposure	1920 ng/mL
rat [4], -5.5 h, 200 ppm, Fischer-344, during exposure	1320 ng/mL
rat [4], -5.75 h, 200 ppm, Fischer-344, during exposure	768 ng/mL

rat [4], 150 ppm, Osborne-Mendel, during exposure
Settings	concentration in blood [ng/mL]
-27 s	9390
-5.001 h	5160
-3.34 h	8640
-2.005 h	8290

Oc1ccc2ccc3c4ccccc4cc4ccc1c2c43 [3-OH-BP]
Settings	concentration in feces, rat [6] [µg/kg]	concentration in urine, rat [5] [µg/kg]
24 h	6.9	3.9
48 h	9.9	5.4
72 h	8.9	6.2
96 h	9.6	5
120 h	7.7	4.2
144 h	9.1	2.6
168 h	8.4	2.6
192 h	4	2.5
216 h	3.3	2.8
240 h	3.2	2.7
264 h	3.1	2.5
288 h	2.5	2.6
312 h	2.5	2.5
336 h	2.3	2.2
360 h	2.3	2.5

Oc1ccc2ccc3c4ccccc4cc4ccc1c2c43 [3-hydroxy benzo[a]pyrene]
Settings	concentration in lung, 0.05 h [ng/mL]	concentration in lung, 1 h [ng/mL]	concentration in lung, 2 h [ng/mL]	concentration in lung, 4 h [ng/mL]	concentration in plasma, 0.5 h [ng/mL]	concentration in plasma, 1 h [ng/mL]	concentration in plasma, 2 h [ng/mL]	concentration in plasma, 4 h [ng/mL]
rat [7], 0.1 mg/m^3, female	0.389	3.61	0.814	0.209	–	–	–	–
rat [7], 0.1 mg/m^3, male	0.29	2.87	1.21	0.154	–	–	–	–
rat [7], 1 mg/m^3, female	11.8	15.5	14.6	1.6	–	–	–	–
rat [7], 1 mg/m^3, male	5.1	16.6	5.12	3	–	–	–	–
rat [7], 2.5 mg/m^3, female	23.9	52.2	12.3	1.49	–	–	–	–
rat [7], 2.5 mg/m^3, male	21.7	48.1	8.15	3.18	–	–	–	–
rat [8], 0.1 mg/m^3, female	–	–	–	–	0.174	0.689	0.344	0.0192
rat [8], 0.1 mg/m^3, male	–	–	–	–	0.301	0.905	0.305	0.0316
rat [8], 1 mg/m^3, female	–	–	–	–	0.399	7	0.356	0.00793
rat [8], 1 mg/m^3, male	–	–	–	–	0.606	8.58	0.97	0.00272
rat [8], 2.5 mg/m^3, female	–	–	–	–	5.8	34.5	6.62	0.324
rat [8], 2.5 mg/m^3, male	–	–	–	–	5.6	33.1	7.14	0.363
